Results published in article doi:10.1101/2023.05.15.540887, “Comparative analysis of drug-like EP300/CREBBP acetyltransferase inhibitors” (bioRxiv, 2023).

Tests used:
RPMI-8226 = experiment: NCI-60 growth inhibition (sulforhodamine B); type: cell-based, human; details: RPMI-8226 (Leukemia), negative log of Molar conc., LCONC -8
SF-539 = experiment: NCI-60 growth inhibition (sulforhodamine B); type: cell-based, human; details: SF-539 (CNS Cancer), negative log of Molar conc., LCONC -8
SK-OV-3 = experiment: NCI-60 growth inhibition (sulforhodamine B); type: cell-based; details: Homo sapiens, SK-OV-3, Ovarian Cancer, negative log of Molar value, LCONC -8, EXPID 2301NS84
BT-549 = experiment: NCI-60 growth inhibition (sulforhodamine B); type: cell-based; details: Homo sapiens, BT-549, Breast Cancer, negative log of Molar value, LCONC -8, EXPID 2301NS84
ACHN = experiment: NCI-60 growth inhibition (sulforhodamine B); type: cell-based; details: Homo sapiens, Renal Cancer, negative log of Molar value
786-0 = experiment: NCI-60 growth inhibition (sulforhodamine B); type: cell-based; details: Homo sapiens, 786-0, Renal Cancer, negative log of Molar value, LCONC -8, EXPID 2301NS84
RXF393 = experiment: NCI-60 growth inhibition (sulforhodamine B); type: cell-based; details: Homo sapiens, RXF 393, Renal Cancer, negative log of Molar value, LCONC -8, EXPID 2301NS84
[1] = test system: histone H3 acetylation in MCF-7 cells; experiment: Western blot analysis of histone acetylation (H3K18Ac, H3K27Ac, H3K23Ac) in MCF-7 cells; type: cell-based, human; details: 3 h, 8 nM – 5 μM, compared among 1-3
Experimental: Next, we sought to quantitatively benchmark the properties of 1-3 in living cells. EP300 and CREBBP modify a wide variety of substrates in biochemical experiments and upon ectopic overexpression.[2] However, two well-characterized cellular histone lysine substrates of these enzymes are H3K18 and H3K27.[26] Even though H3K18Ac is the more abundant of the two markers, H3K27Ac is also of great interest due to its association with active enhancer regions. […] Cells were treated with escalating doses of 1-3 and harvested at 3 h to avoid overt cytotoxicity and allow the direct effects on acetylation to be observed (Fig. 3a). […] Control experiments indicated levels of H3K23Ac, which is not regulated by EP300/CREBBP, were not affected.
MCF-7 cells were plated in 1700 µL culture medium at 1 x 10^6 cells per well in 6-well dishes. After 16-24 h cells were treated with 300 µL of 1-3-containing media to yield a final concentration of 8 nM, 40 nM, 200 nM, 1 µM, or 5 µM EP300/CREBBP inhibitor (0.1% final concentrations of DMSO). Controls were treated with vehicle DMSO (0.1%). […]
Histone samples were quantified using the Precision Red Protein Assay (Cytoskeleton #ADV02). […]

MALME-3M = experiment: NCI-60 growth inhibition (sulforhodamine B); type: cell-based, human; details: MALME-3M (Melanoma), negative log of Molar conc., LCONC -8
[2] = Homo sapiens, read-out: GI50 NLOGVALUE
[3] = Homo sapiens, read-out: LC50 NLOGVALUE
[4] = Homo sapiens, read-out: IC50 NLOGVALUE
[5] = read-out: GI50 NLOGVALUE (converted)

Which GI50 (RPMI-8226; [2]) does the source give for `C[C@H](CN[C@@H](C(=O)Nc1ccc(-c2cnn(C)c2)cn1)c1ccccc1)c1ccc(C#N)cc1` [CPI-1612] here?
Its GI50 is under 0.01 µM.

What about the IC50 (RPMI-8226; Homo sapiens, read-out: IC50 NLOGVALUE (converted)) of the same compound?
Its IC50 is 0.0126 µM.

What about the CC50 (RPMI-8226; [3]) of the same compound?
The CC50 was over 100 µM.

What about the “TGI NLOGVALUE” (RPMI-8226) of the same compound?
Its value is 4.56.

What about the GI50 (SF-539; Homo sapiens, read-out: GI50 NLOGVALUE (converted)) of the same compound?
The GI50 was 2.09 µM.

And the IC50 (SF-539; [4])?
Its IC50 is over 100 µM.

What about the CC50 (SF-539; [3]) of the same compound?
The CC50 was over 100 µM.

And the “TGI NLOGVALUE” (SF-539)?
The value was 4.

What about the GI50 (SK-OV-3; read-out: GI50 NLOGVALUE) of the same compound?
Its GI50 is over 100 µM.

And the IC50 (SK-OV-3; read-out: IC50 NLOGVALUE)?
The IC50 was over 100 µM.

And the CC50 (SK-OV-3; read-out: LC50 NLOGVALUE)?
Its CC50 is over 100 µM.

And the GI50 (BT-549; read-out: GI50 NLOGVALUE)?
The GI50 was over 100 µM.

And the IC50 (BT-549; read-out: IC50 NLOGVALUE)?
Its IC50 is over 100 µM.

What about the CC50 (BT-549; read-out: LC50 NLOGVALUE) of the same compound?
Its CC50 is over 100 µM.

What about the GI50 (ACHN; LCONC -8, EXPID 2301NS84, read-out: GI50 NLOGVALUE (converted)) of the same compound?
The GI50 was 0.0129 µM.

What about the IC50 (ACHN; LCONC -8, EXPID 2301NS84, read-out: IC50 NLOGVALUE (converted)) of the same compound?
Its IC50 is 0.0309 µM.

What about the GI50 (786-0; [5]) of the same compound?
Its GI50 is 55 µM.

What about the IC50 (786-0; read-out: IC50 NLOGVALUE) of the same compound?
Its IC50 is over 100 µM.

And the CC50 (786-0; read-out: LC50 NLOGVALUE)?
Its CC50 is over 100 µM.

What about the GI50 (RXF393; [5]) of the same compound?
Its GI50 is 55 µM.

And the IC50 (RXF393; read-out: IC50 NLOGVALUE)?
Its IC50 is over 100 µM.

And the CC50 (RXF393; read-out: LC50 NLOGVALUE)?
Its CC50 is over 100 µM.

What about the “inhibition of histone acetylation (H3K18Ac, H3K27Ac), Western blot” value [1] of the same compound?
The value was “most potent activity”.

What about the GI50 (MALME-3M; [2]) of the same compound?
Its GI50 is under 0.01 µM.

What about the IC50 (MALME-3M; [4]) of the same compound?
The IC50 was over 100 µM.

What about the CC50 (MALME-3M; [3]) of the same compound?
Its CC50 is over 100 µM.

What about the “TGI NLOGVALUE” (MALME-3M) of the same compound?
The value was 4.
